Experimental data from patent US10213451B2, “Methods and compounds for modulating the secretion or expression of adhesion proteins or angiopoietins of cells” (PACIFIC ARROW LIMITED, priority 2004, dated 2019).
≈ marks a conversion by molar mass, not a printed value.

Assays:
(lung)H460 cells = assay: MTT assay H460; assay type: cell-based; settings: Homo sapiens, NCI-H460
Experimental: (§1) Cells. Human cancer cell lines were obtained from American Type Culture Collection: HTB-9 (bladder), HeLa-S3 (cervix), DU145 (prostate), H460 (lung), MCF-7 (breast), K562 (leukocytes), HCT116 (colon), HepG2 (liver), U2OS (bone), T98G (brain), SK-MEL-5 (Skin) and OVCAR-3 (ovary). The cells were grown in following culture media: HeLa-53, DU145, MCF-7, Hep-G2 and T98G are in MEN (Earle's salts); HTB-9, H460, K562 and OVCAR-3 in RPMI-1640; HCT-116 and U2OS in McCoy-5A. They are supplemented with 10% fetal calf serum, glutamine and antibiotics, and incubated in an incubator with 5% CO2 humidified at 37° C.
MTT Assay. The procedure for MTT assay followed the method described by Carmichael et al. (1987) with modifications. […] The formazan (product of the reduction of tetrazolium by viable cells) formed and was dissolved with DMSO and the O.D. at 490 nm, and was measured by an ELISA reader. The MTT level of the cells before drug-treatment was also measured (T0). The % cell-growth (% G) is calculated as: % G=(TD−T0/TC−T0)×100(1), where TC or TD represents O.D. readings of control or drug-treated cells. When T0>TD, then the cytotoxicity (LC) expressed as % of the control is calculated as: % LC=(TD−T0/T0)×100(2).

SKOV 3 = assay: MTT assay SKOV 3; assay type: cell-based; settings: Homo sapiens, SK-OV-3; SKOV 3, Serous
Experimental: Majority of ovarian cancers arise from the surface epithelium of ovary, most of them belong to the histological subtypes of clear cell and serous carcinoma. We obtained 10 more human ovarian carcinoma cell-lines of these histological subtypes for these studies. The inhibition activity exerted by Xanifolia-Y was determined with MTT assay.

[1] = test system: Fibronectin secretion from Hey8A (human ovarian carcinoma cells); assay: Fibronectin secretion (Western blot), Hey8A cells; assay type: cell-based; settings: 10 ug/ml, 24 hours
Experimental: Inhibition of Fibronectin secretion is physiological and the determination of its quantity is based on the following criteria: • 1. Fibronectin is secreted from viable cells. Only cell with over 85% viable cells after drug-treatment are employed in these experiments. The viable cells were determined by MTT assay. • 2. For comparison, the immuno-band intensity from each samples are normalized with cell mass. The cell mass was determined by the MTT assay and is assigned as a MTT unit for each cell sample.
Cells: Hey8A (human ovarian carcinoma cells) were grew in RPMI 1640 medium to 90% confluent before drug-treatment. Drug-treatment: Cells cultures were replaced with fresh RPMI medium containing either DMSO (as control) [D1]; or Xanifolia-Y (10, 15, or 20 ug/ml) [Y1, Y2 and Y3]. Aliquot of medium was removed as 0 hours sample and no FN was detected at this time. After 24 hours, aliquot of culture medium was taken out for Fibronectin determination (Western blot method). Cell viability at 24 hours was determined by MTT assay. Cultures were replaced with RPMI medium (5 ml) with MTT and incubated for an hour. The formation of formazan was dissolved in DMSO and OD at 570 nm was measured.
Western Blot: Spent culture medium (0.6 ml) was mixed with SDS sample buffer (0.2 ml), boiled for 3 minutes before loading to SDS gel. Samples (60 ul/lane) were applied to a 6% SDS gel and electrophoresis was conducted with 100 volts for 2 hours. Protein was transferred to a nitrocellulose paper electrophoretically (30 min at 100 volts). The Western blot was incubated with the first antibody (mouse anti-FN, specific to human FN, SIGMA F0916) and second antibody (Anti-mouse IgG AP conjugated, Promega S3721). The immunobands were developed with BCIP/NBT color development system (Promega S3771).

[2] = test system: (bladder)TB9 cells / HTB-9; assay: MTT assay bladder cells; assay type: cell-based, human
Experimental: as §1
MTT Assay. The procedure for MTT assay followed the method described by Carmichael et al. (1987) with modifications. The cells were seeded into a 96-well plate at concentration of 10,000/well for HTB-9, HeLa, H460, HCT116, T98G and OVCAR-3), 15,000/well for DU145, MCF-7, HepG2 and U2OS), and 40,000/well for K562 for 24 hours before drug-treatment. The cells were then exposed to the drugs for 48 hours (72 hours for HepG2 and U2OS, and 96 hours for MCF-7). After the drug-treatment, MTT (0.5 mg/mL) was added to cultures and incubated for an hour. The formazan (product of the reduction of tetrazolium by viable cells) formed and was dissolved with DMSO and the O.D. at 490 nm, and was measured by an ELISA reader. The MTT level of the cells before drug-treatment was also measured (T0). The % cell-growth (% G) is calculated as: % G=(TD−T0/TC−T0)×100(1), where TC or TD represents O.D. readings of control or drug-treated cells. When T0>TD, then the cytotoxicity (LC) expressed as % of the control is calculated as: % LC=(TD−T0/T0)×100(2).

[3] = test system: ES2 cells attached to flasks; assay: Inhibition of cell adhesion to flasks, ES2; assay type: cell-based
Experimental: (§2) Methods and Results. ES2 or Hey8A cells were plated in T25 flasks with medium containing 5 ug/ml of Xanifolia-Y. Cultures were incubated for 5 hours. Attached cells were removed from flasks by trypsinization and the amounts were counted. Compare to no drug controls, 86±4% of ES2 cells and 67±8% of Hey8A cells were found attached to flasks under this condition. At 5 ug/ml Xanifolia-Y, over 90% of unattached cells are alive as determined by the trypan Blue exclusion assay and by their ability to re-attach to flasks when plating in medium without Xanifolia-Y. However, with 10 ug/ml Xanifolia-Y, less than 40% of cells attached to flasks and many of them are dead cells.
as §2, with “Results:” for “Results.”

For C/C=C(/C)C(=O)O[C@H]1[C@H](OC(=O)/C(C)=C\C)[C@@]2(CO)C(CC1(C)C)C1=CCC3[C@@]4(C)CC[C@H](O[C@@H]5OC(C(=O)O)[C@@H](O)C(O[C@@H]6O[C@@H](CO)C(O)C6O)C5O[C@@H]5OC(CO)[C@H](O)C(O)C5O)C(C)(C)C4CC[C@@]3(C)[C@]1(C)[C@@H](O)[C@H]2O (stereo partly drawn) [Xanifolia-Y, 3-O-[β-D-galactopyranosyl (1→2)]-α-L-arabinofuranosy (1→3)-β-D-glucuronopyranosyl-21,22-O-diangeloyl-3β, 15α, 16α, 21β, 22α, 28-hexahydroxyolean-12-ene], the IC50 ((lung)H460 cells) was 7.5 µg/mL (≈ 6.57 µM), the IC50 (SKOV 3) was 10.5 µM and the “Fibronectin secreted as compared with the DMSO control” value [1] was 31%. The “average band intensity after corrected with the MTT unit” value [1] was 366, the inhibition at 10 µg/mL ([1]; Homo sapiens, Ovarian carcinoma cell) was 69% and the “growth of cells compared to the DMSO control (MTT)” value ([2]; HTB-9, 10 ug/ml) was 77%-91%. For the same compound, the IC50 ([2]; Homo sapiens, (bladder)TB9 cells, read-out: IC50) was 5 µg/mL (≈ 4.38 µM), the “cells attached to flasks, compared to no drug controls” value ([3]; ES2 cells, 5 ug/ml, 5 hours) was 86±4% and the “unattached cells alive (trypan Blue exclusion, re-attachment)” value ([3]; ES2 or Hey8A cells, 5 ug/ml) was “over 90%”. For the same compound, the “cells attached to flasks” value ([3]; ES2 or Hey8A cells, 10 ug/ml) was “less than 40%”.
